Target: T1, Human Polθ polymerase domain (aa1820-2590) (Homo sapiens, UniProt O75417)
T1 construct: Human Polθ polymerase domain (aa1820-2590) was expressed in E. Coli; made in house; host or cells: E. coli
T1 sequence (O75417 1820-2590): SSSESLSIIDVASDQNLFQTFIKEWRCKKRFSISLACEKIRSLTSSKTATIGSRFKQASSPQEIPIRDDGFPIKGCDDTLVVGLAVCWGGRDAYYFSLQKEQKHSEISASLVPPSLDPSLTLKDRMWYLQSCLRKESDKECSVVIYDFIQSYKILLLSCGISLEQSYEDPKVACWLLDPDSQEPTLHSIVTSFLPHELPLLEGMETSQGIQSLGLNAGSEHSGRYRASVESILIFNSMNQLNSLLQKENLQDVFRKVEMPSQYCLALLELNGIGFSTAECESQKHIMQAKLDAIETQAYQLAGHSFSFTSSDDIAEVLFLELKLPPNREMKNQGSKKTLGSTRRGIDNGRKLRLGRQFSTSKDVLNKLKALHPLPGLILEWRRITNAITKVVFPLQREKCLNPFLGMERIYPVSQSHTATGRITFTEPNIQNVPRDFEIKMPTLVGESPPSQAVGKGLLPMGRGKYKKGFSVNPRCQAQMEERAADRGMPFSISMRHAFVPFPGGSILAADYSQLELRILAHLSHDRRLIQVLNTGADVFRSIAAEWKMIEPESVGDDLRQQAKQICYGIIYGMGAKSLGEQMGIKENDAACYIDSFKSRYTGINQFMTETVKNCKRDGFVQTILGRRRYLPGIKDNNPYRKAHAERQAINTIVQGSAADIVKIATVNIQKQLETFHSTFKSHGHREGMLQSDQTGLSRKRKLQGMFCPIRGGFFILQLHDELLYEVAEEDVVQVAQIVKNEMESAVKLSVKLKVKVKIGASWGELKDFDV
Assay: Polθ Polymerase Domain Kinact/Kl Assay (PicoGreen)
Format: biochemical
Settings: covalent inhibitors, kobs vs [I] fit, 0.8 nM Polθ, 100 nM DNA substrate
Procedure: Polθ Polymerase Domain Kinact/Kl Assay
A PicoGreen assay was used to measure the Kinact and Kl values of covalent compounds that inhibit the activity of Polθ in vitro.
Human Polθ polymerase domain (aa1820-2590) was expressed in E. Coli, purified, aliquoted and stored at −80° C. until required. Polθ substrate was generated from a 1.2:1 mix of DNA II Short to DNA II Long to give a final concentration of […] substrate in annealing buffer (20 mM Tris pH 7.5, 50 mM NaCl). The substrate was heated in 50 mL aliquots to 95° C. in a heating block for 5 min before the heating block switched off, the reaction left to cool to rt and stored at −20° C. until required.
Assay measurements were performed with 1× buffer comprising 25 mM Tris pH 7.5, 12.5 mM NaCl, […], 5% (v/v) glycerol, 0.01% v/v Triton x-100, 0.1 mg/ml BSA, 1 mM DTT. Test compounds were prepared by dilution in 100% DMSO to give a 12 μM intermediate stock of each (100× final top concentration). 100 nL of 23× 1:1.5-fold serial dilutions and a DMSO only control were dispensed using the Tecan dispenser into Greiner 384 well black low volume plates (product code 784076). DMSO concentration was maintained at 1% of the final assay volume by back filling with DMSO.
2× Working stock of substrate (200 nM of DNA substrate and […] dNTPs) and enzyme (1.4 nM Polθ) were made up in assay buffer. 5 μL/well of both enzyme and substrate 2× solutions were dispensed using a Tempest dispenser (Formulatrix) into assay plates that had been pre-dispensed with compound to give a final assay concentration of 100 nM DNA substrate, […] dNTPs and 0.8 nM Polθ. To stop the reaction, […] of a solution containing 25 mM Tris-HCl pH 7.5 and 20 mM EDTA was added at […] (t=0, 2.5, 5, 7.5, 10, 12.5, 15, 20, 25, 30, 35, 40, 45, 50, 55 and 60 min) using the Tempest's time delay function. The plates were covered during the time course to prevent evaporation. After completing the assay, 5 μL of detection reagent (25 mM Tris-HCl pH 7.5 and 2.5% (v/v) PicoGreen) was dispensed into the wells using a Tempest liquid handler (Formulatrix) and plates subsequently read on the CLARIOstar Plus (BMG Labtech) using the default optical settings for fluorescein and the auto gain/focus settings.
All data analysis was carried out using GraphPad Prism V. 8 (GraphPad Software Inc, San Diego, CA) Time course data for each inhibitor concentration was fitted to equation 1 to determine kobs values.^1 Any time points where the control (DMSO alone) reaction was no longer linear were excluded from the analysis.
A secondary plot of kobs vs [I] is used to determine the Kinact and Kl parameters (for a 2-step covalent inhibitor) by fitting to equation 2.1
[formula] • 1) Evaluation of Enzyme Inhibitors in Drug Discovery (Ch9), R. A Copeland, Wiley, 2nd Edition 2013.

Compound	kinact/KI
2-(((S)-6-(2-((1S,4S)-5- (1-Acryloylazetidin-3-yl)- 2,5-diazabicyclo[2.2.1] heptan-2-yl)ethyl)-7- fluoro-1-methyl-2-oxo- 1,2,3,4,5,6-hexahydro- benzo[b][1,4]diazocin-3- yl)amino)-6-methyl-4- (trifluoromethyl)nicotino- nitrile [Example 19]	160000 M⁻¹ s⁻¹
2-(((S)-6-(2-((S)-4-(1- Acryloylazetidin-3-yl)-2- methylpiperazin-1-yl)eth- yl)-7-fluoro-1-methyl-2- oxo-1,2,3,4,5,6-hexahydro- benzo[b][1,4]diazocin-3- yl)amino)-6-methyl-4- (trifluoromethyl)nicotino- nitrile [Example 14]	780000 M⁻¹ s⁻¹
Cc1cc(C(F)(F)F)c(C#N)c(N[C@H]2CCN(CC(O)CN3CCN(C(=O)/C=C/CN(C)C)CC3)c3c(F)cccc3N(C)C2=O)n1 (mixture of isomers) [Example 32A, 2-(((S)-6-((S/R)-3-(4-((E)-4-(Dimethylamino)but-2-enoyl)piperazin-1-yl)-2-hydroxypropyl)-7-fluoro-1-methyl-2-oxo-1,2,3,4,5,6-hexahydrobenzo[b][1,4]diazocin-3-yl)amino)-6-methyl-4-(trifluoromethyl)nicotinonitrile]	770000 M⁻¹ s⁻¹
(S,E)-2-((6-(2-(2- (4-(Dimethyl- amino)but-2-eno- yl)-5-methyl-7- oxo-2,5,8-triaza- spiro[3.5]nonan-8- yl)ethyl)-7-fluoro- 1-methyl-2-oxo- 1,2,3,4,5,6-hexa- hydrobenzo[b] [1,4]diazocin-3- yl)amino)-6-meth- yl-4-(trifluoro- methyl)nicotino- nitrile [Example 46]	560000 M⁻¹ s⁻¹
C=CC(=O)N1CC(O[C@@H]2CN(CCN3CC[C@H](Nc4nc(C)cc(C(F)(F)F)c4C#N)C(=O)N(C)c4cccc(F)c43)C[C@H]2O)C1 [Example 65A, 2-(((S)-6-(2-((3S/R,4S/R)-3-((1-Acryloylazetidin-3-yl)oxy)-4-hydroxypyrrolidin-1-yl)ethyl)-7-fluoro-1-methyl-2-oxo-1,2,3,4,5,6-hexahydrobenzo[b][1,4]diazocin-3-yl)amino)-6-methyl-4-(trifluoromethyl)nicotinonitrile]	460000 M⁻¹ s⁻¹

Same assay, conditions: covalent inhibitors, kobs vs [I] fit, 0.8 nM Polθ, 100 nM DNA substrate, read-out: Kinact/KI

Compound	kinact/KI
Cc1cc(C(F)(F)F)c(C#N)c(N[C@H]2CCN(CCN3CC4(CN(C(=O)/C=C/CN(C)C)C4)OC3=O)c3c(F)cccc3N(C)C2=O)n1 [Example 24, (S,E)-2-((6-(2-(2-(4-(Dimethylamino)but-2-enoyl)-6-oxo-5-oxa-2,7-diazaspiro[3.4]octan-7-yl)ethyl)-7-fluoro-1-methyl-2-oxo-1,2,3,4,5,6-hexahydrobenzo[b][1,4]diazocin-3-yl)amino)-6-methyl-4-(trifluoromethyl)nicotinonitrile]	630000 M⁻¹ s⁻¹
Cc1cc(C(F)(F)F)c(C#N)c(N[C@H]2CCN(CCN3CCOC4(CCN(C(=O)/C=C/CN(C)C)C4)C3)c3c(F)cccc3N(C)C2=O)n1 (stereo partly drawn) [Example 2, 2-(((S)-6-(2-(2-((E)-4-(Dimethylamino)but-2-enoyl)-6-oxa-2,9-diazaspiro[4.5]decan-9-yl)ethyl)-7-fluoro-1-methyl-2-oxo-1,2,3,4,5,6-hexahydrobenzo[b][1,4]diazocin-3-yl)amino)-6-methyl-4-(trifluoromethyl)nicotinonitrile]	510000 M⁻¹ s⁻¹
Cc1cc(C(F)(F)F)c(C#N)c(N[C@H]2CCN(CCCOC3CN(C(=O)/C=C/[C@H]4CCCN4C)C3)c3c(F)cccc3N(C)C2=O)n1 [Example 55, 2-(((S)-7-Fluoro-1-methyl-6-(3-((1-((E)-3-((R)-1-methylpyrrolidin-2-yl)acryloyl)azetidin-3-yl)oxy)propyl)-2-oxo-1,2,3,4,5,6-hexahydrobenzo[b][1,4]diazocin-3-yl)amino)-6-methyl-4-(trifluoromethyl)nicotinonitrile]	810000 M⁻¹ s⁻¹
COCCN(C)C/C=C/C(=O)N1CC(OCCCN2CC[C@H](Nc3nc(C)cc(C(F)(F)F)c3C#N)C(=O)N(C)c3cccc(F)c32)C1 [Example 56, (S,E)-2-((7-Fluoro-6-(3-((1-(4-((2-methoxyethyl)(methyl)amino)but-2-enoyl)azetidin-3-yl)oxy)propyl)-1-methyl-2-oxo-1,2,3,4,5,6-hexahydrobenzo[b][1,4]diazocin-3-yl)amino)-6-methyl-4-(trifluoromethyl)nicotinonitrile]	1.1e+07 M⁻¹ s⁻¹
Cc1cc(C(F)(F)F)c(C#N)c(N[C@H]2CCN(CCOC3CN(C(=O)/C=C/CN(C)C)C3)c3ccccc3N(C)C2=O)n1 [Example 50, (S,E)-2-((6-(2-((1-(4-(Dimethylamino)but-2-enoyl)azetidin-3-yl)oxy)ethyl)-1-methyl-2-oxo-1,2,3,4,5,6-hexahydrobenzo[b][1,4]diazocin-3-yl)amino)-6-methyl-4-(trifluoromethyl)nicotinonitrile]	110000 M⁻¹ s⁻¹
Cc1cc(C(F)(F)F)c(C#N)c(N[C@H]2CCN(CCCOC3CN(C(=O)/C=C/CN(C)C)C3)c3cc(F)cc(F)c3N(C)C2=O)n1 [Example 43, (S,E)-2-((6-(3-((1-(4-(Dimethylamino)but-2-enoyl)azetidin-3-yl)oxy)propyl)-8,10-difluoro-1-methyl-2-oxo-1,2,3,4,5,6-hexahydrobenzo[b][1,4]diazocin-3-yl)amino)-6-methyl-4-(trifluoromethyl)nicotinonitrile]	900000 M⁻¹ s⁻¹
C=CC(=O)N1CC2(CN(CCN3CC[C@H](Nc4nc(C)cc(C(F)(F)F)c4C#N)C(=O)N(C)c4cccc(F)c43)CCN2C)C1 [Example 6, (S)-2-((6-(2-(2-Acryloyl-5-methyl-2,5,8-triazaspiro[3.5]nonan-8-yl)ethyl)-7-fluoro-1-methyl-2-oxo-1,2,3,4,5,6-hexahydrobenzo[b][1,4]diazocin-3-yl)amino)-6-methyl-4-(trifluoromethyl)nicotinonitrile]	980000 M⁻¹ s⁻¹
Cc1cc(C(F)(F)F)c(C#N)c(N[C@H]2CCN(CCN3CCOC4(C3)CN(C(=O)/C=C/CN(C)C)C4)c3ccccc3N(C)C2=O)n1 [Example 3, (S,E)-2-((6-(2-(2-(4-(Dimethylamino)but-2-enoyl)-5-oxa-2,8-diazaspiro[3.5]nonan-8-yl)ethyl)-1-methyl-2-oxo-1,2,3,4,5,6-hexahydrobenzo[b][1,4]diazocin-3-yl)amino)-6-methyl-4-(trifluoromethyl)nicotinonitrile]	1.1e+06 M⁻¹ s⁻¹
C=CC(=O)N1CC(c2noc(CN3CC[C@H](Nc4nc(C)cc(C(F)(F)F)c4C#N)C(=O)N(C)c4cccc(F)c43)n2)C1 [Example 67, (S)-2-((6-((3-(1-Acryloylazetidin-3-yl)-1,2,4-oxadiazol-5-yl)methyl)-7-fluoro-1-methyl-2-oxo-1,2,3,4,5,6-hexahydrobenzo[b][1,4]diazocin-3-yl)amino)-6-methyl-4-(trifluoromethyl)nicotinonitrile]	1.3e+06 M⁻¹ s⁻¹
